Patent publication US11332459B2 (TEIJIN PHARMA LIMITED, priority 2017, dated 2022)
Structures can show the parent of a compound that is named as a salt.

Each compound was assayed against T1, human TRPC6 (Homo sapiens, UniProt Q9Y210) (assay: TRPC6 calcium flux assay (FLIPR, OAG-stimulated calcium influx)). Conditions: HEK293 cells stably transfected with human TRPC6, read-out: hTRPC6 Potency.
T1 construct: expressed in transfected cells
T1 sequence (Q9Y210 1-931): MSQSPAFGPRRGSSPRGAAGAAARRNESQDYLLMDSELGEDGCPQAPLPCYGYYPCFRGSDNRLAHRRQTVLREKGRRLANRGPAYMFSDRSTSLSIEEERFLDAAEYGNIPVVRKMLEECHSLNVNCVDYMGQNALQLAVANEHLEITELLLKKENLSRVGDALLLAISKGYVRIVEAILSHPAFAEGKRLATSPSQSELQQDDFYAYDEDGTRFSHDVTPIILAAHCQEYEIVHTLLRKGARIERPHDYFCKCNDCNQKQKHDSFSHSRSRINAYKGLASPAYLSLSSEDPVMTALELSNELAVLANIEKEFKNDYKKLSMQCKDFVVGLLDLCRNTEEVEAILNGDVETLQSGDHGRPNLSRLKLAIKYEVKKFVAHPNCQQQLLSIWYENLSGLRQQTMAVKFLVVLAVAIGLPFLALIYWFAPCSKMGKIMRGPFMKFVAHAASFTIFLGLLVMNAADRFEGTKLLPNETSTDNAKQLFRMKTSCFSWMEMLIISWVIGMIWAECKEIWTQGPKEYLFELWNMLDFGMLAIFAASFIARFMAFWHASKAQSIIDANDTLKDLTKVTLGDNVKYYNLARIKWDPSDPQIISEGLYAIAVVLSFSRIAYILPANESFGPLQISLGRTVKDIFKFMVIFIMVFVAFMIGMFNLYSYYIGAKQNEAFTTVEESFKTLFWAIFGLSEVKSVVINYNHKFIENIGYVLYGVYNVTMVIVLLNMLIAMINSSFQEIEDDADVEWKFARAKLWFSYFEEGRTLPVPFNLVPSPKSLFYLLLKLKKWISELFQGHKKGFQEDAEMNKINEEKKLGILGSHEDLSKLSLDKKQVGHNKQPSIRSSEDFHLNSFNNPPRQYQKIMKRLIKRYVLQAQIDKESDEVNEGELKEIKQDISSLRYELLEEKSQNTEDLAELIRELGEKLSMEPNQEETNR
Type: cell-based
Outline: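 IC50 derived by plotting background-corrected peak fluorescence (180 s window, normalized to OAG-triggered signal vs buffer) against dose. Stable human TRPC6 HEK293 line was dye-loaded, exposed to compound 25 min, then challenged with 50 uM final OAG in 2 mM Ca2+ HEPES buffer pH 7.2, 0.5% DMSO.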

Compound | IC50
CN(C)C(=O)Cn1c(N2CC[C@@H](F)[C@H](N)C2)nc2ccc(C(F)(F)F)cc21 [Example 563, 2-(2-((3R,4R)-3-amino-4-fluoropiperidin-1-yl)-6-(trifluoromethyl)-1H-benzo[d]imidazol-1-yl)-N,N-dimethylacetamide] | 21.6 nM
CN1CC[C@@H](n2c(N3CC[C@@H](F)[C@H](N)C3)nc3cc(F)c(F)cc32)C1=O [Example 246, (R)-3-(2-((3R,4R)-3-amino-4-fluoropiperidin-1-yl)-5,6-difluoro-1H-benzo[d]imidazol-1-yl)-1-methylpyrrolidin-2-one] | 2920 nM
CO[C@@H]1CCN(c2nc3ccc(F)cc3n2CC(=O)N(C)CC(F)(F)F)C[C@H]1N [Example 485, 2-(2-((3R,4R)-3-amino-4-methoxypiperidin-1-yl)-6-fluoro-1H-benzo[d]imidazol-1-yl)-N-methyl-N-(2,2,2-trifluoroethyl)acetamide] | > 3750 nM
C[C@@H](c1ccc(F)cc1F)n1c(N2CC[C@@H](F)[C@H](N)C2)nc2cc(F)c(F)cc21 [Example 331, (3R,4R)-1-(1-((1S)-1-(2,4-difluorophenyl)ethyl)-5,6-difluoro-1H-benzimidazol-2-yl)-4-fluoro-3-piperidinamine] | 204 nM
N[C@H]1CCCN(c2nc3ccccc3n2Cc2ccc(F)cc2)C1 [Example 368, (S)-1-(1-(4-fluorobenzyl)-1H-benzo[d]imidazol-2-yl)piperidin-3-amine] | 99.2 nM
N#Cc1ccc2c(c1)nc(N1CC[C@@H](F)[C@H](N)C1)n2Cc1ccc(C(F)(F)F)nc1 [Example 244, 2-((3R,4R)-3-amino-4-fluoropiperidin-1-yl)-1-((6-(trifluoromethyl)pyridin-3-yl)methyl)-1H-benzo[d]imidazole-5-carbonitrile hydrochloride] | > 3750 nM
CN[C@@H]1CN(c2nc3ccc(F)cc3n2Cc2ccc(C#N)cn2)CCC1(F)F [Example 432, (R)-6-((2-(4,4-difluoro-3-(methylamino)piperidin-1-yl)-6-fluoro-1H-benzo[d]imidazol-1-yl)methyl)nicotinonitrile] | 7.77 nM
CC(C)(C)OC1CN(C(=O)Cn2c(N3CC[C@@H](F)[C@H](N)C3)nc3cc(F)c(F)cc32)C1 [Example 427, 2-(2-((3R,4R)-3-amino-4-fluoropiperidin-1-yl)-5,6-difluoro-1H-benzo[d]imidazol-1-yl)-1-(3-(tert-butoxy)azetidin-1-yl)ethan-1-one] | > 1750 nM
N#Cc1ccc(Cn2c(N3CC[C@H](F)[C@H](N)C3)nc3ccc(Cl)cc32)nc1 [Example 8, 6-((2-((3R,4S)-3-amino-4-fluoropiperidin-1-yl)-6-chloro-1H-benzo[d]imidazol-1-yl)methyl)nicotinonitrile] | 0.283 nM
CC1(C)COCCN1C(=O)Cn1c(N2CC[C@@H](F)[C@H](N)C2)nc2ccc(F)cc21 [Example 687, 2-(2-((3R,4R)-3-amino-4-fluoropiperidin-1-yl)-6-fluoro-1H-benzo[d]imidazol-1-yl)-1-(3,3-dimethylmorpholino)ethan-1-one] | 2080 nM
C[C@@H](c1ccc(Cl)cn1)n1c(N2CC[C@@H](F)[C@H](N)C2)nc2cc(F)c(F)cc21 [Example 218, (3R,4R)-1-(1-((S)-1-(5-chloropyridin-2-yl)ethyl)-5,6-difluoro-1H-benzo[d]imidazol-2-yl)-4-fluoropiperidin-3-amine hydrochloride] | 0.82 nM
N[C@@H]1CN(c2nc3ccccc3n2Cc2ncc(Br)cn2)CC[C@H]1F [Example 192, (3R,4R)-1-(1-((5-bromopyrimidin-2-yl)methyl)-1H-benzo[d]imidazol-2-yl)-4-fluoropiperidin-3-amine] | 1.72 nM
N[C@@H]1CN(c2nc3ccc(C(F)(F)F)cc3n2CC(=O)N2CCOCC2)CC[C@@H]1F [Example 464, 2-(2-((3R,4S)-3-amino-4-fluoropiperidin-1-yl)-6-(trifluoromethyl)-1H-benzo[d]imidazol-1-yl)-1-morpholinoethan-1-one] | 63.1 nM
N#Cc1ccc(Cn2c(N3CCC[C@](N)(CO)C3)nc3ccccc32)nc1 [Example 105, (R)-6-((2-(3-amino-3-(hydroxymethyl)piperidin-1-yl)-1H-benzo[d]imidazol-1-yl)methyl)nicotinonitrile] | 2480 nM
N[C@@H]1CN(c2nc3ccc(C(F)(F)F)cc3n2CC(=O)N2CCOCC2)CC[C@H]1F [Example 459, 2-(2-((3R,4R)-3-amino-4-fluoropiperidin-1-yl)-6-(trifluoromethyl)-1H-benzo[d]imidazol-1-yl)-1-morpholinoethan-1-one] | 16.4 nM
Cc1nnc(Cn2c(N3CCC(F)(F)[C@H](N)C3)nc3cc(F)ccc32)s1 [Example 597, (R)-4,4-difluoro-1-(5-fluoro-1-((5-methyl-1,3,4-thiadiazol-2-yl)methyl)-1H-benzo[d]imidazol-2-yl)piperidin-3-amine] | > 3750 nM
N#Cc1ccc(Cn2c(N3CC[C@H](CN)C3)nc3ccccc32)cc1 [Example 179, (R)-4-((2-(3-(aminomethyl)pyrrolidin-1-yl)-1H-benzo[d]imidazol-1-yl)methyl)benzonitrile] | 326 nM
COc1cc(F)cc2c1nc(N1CC[C@@H](F)[C@H](N)C1)n2Cc1ccc(C#N)cn1 [Example 452, 6-((2-((3R,4R)-3-amino-4-fluoropiperidin-1-yl)-6-fluoro-4-methoxy-1H-benzo[d]imidazol-1-yl)methyl)nicotinonitrile] | 1.17 nM
C[C@@H](c1cc(F)ccc1F)n1c(N2CC[C@@H](F)[C@H](N)C2)nc2cc(F)c(F)cc21 [Example 335, (3R,4R)-1-(1-((1S)-1-(2,5-difluorophenyl)ethyl)-5,6-difluoro-1H-benzimidazol-2-yl)-4-fluoro-3-piperidinamine] | > 3750 nM
N#Cc1ccc(Cn2c(N3C[C@@H]4C[C@]4(CN)C3)nc3ccccc32)nc1 [Example 75, 6-((2-((1S,5R)-1-(aminomethyl)-3-azabicyclo[3.1.0]hexan-3-yl)-1H-benzo[d]imidazol-1-yl)methyl)nicotinonitrile hydrochloride] | 81.4 nM
CC(c1ncc(Cl)cn1)n1c(N2CC[C@@H](F)[C@H](N)C2)nc2cc(F)c(F)cc21 (stereo in doubt) [Example 508, (3R,4R)-1-(1-((R)-1-(5-chloropyrimidin-2-yl)ethyl)-5,6-difluoro-1H-benzo[d]imidazol-2-yl)-4-fluoropiperidin-3-amine] | 112 nM
N#Cc1ccc(Cn2c(N3CC[C@@H](F)[C@H](N)C3)nc3cc(Cl)c(Cl)cc32)nc1 [Example 43, 6-((2-((3R,4R)-3-amino-4-fluoropiperidin-1-yl)-5,6-dichloro-1H-benzo[d]imidazol-1-yl)methyl)nicotinonitrile] | 0.581 nM
N#Cc1cc(F)cc2c1nc(N1CC[C@@H](F)[C@H](N)C1)n2Cc1ncc(Cl)cn1 [Example 31, 2-((3R,4R)-3-amino-4-fluoropiperidin-1-yl)-1-((5-chloropyrimidin-2-yl)methyl)-6-fluoro-1H-benzo[d]imidazole-4-carbonitrile] | 0.476 nM
COc1ccc(Cn2c(N3CC[C@@H](F)[C@H](N)C3)nc3ccccc32)nc1 [Example 425, (3R,4R)-4-fluoro-1-(1-((5-methoxypyridin-2-yl)methyl)-1H-benzo[d]imidazol-2-yl)piperidin-3-amine] | 113 nM
N#Cc1ccc(Cn2c(N3CCC[C@H](N)C3)nc3ccc(F)cc32)nc1 [Example 45, (S)-6-((2-(3-aminopiperidin-1-yl)-6-fluoro-1H-benzo[d]imidazol-1-yl)methyl)nicotinonitrile hydrochloride] | 2.36 nM
NC(=O)C1CCCCN1C(=O)Cn1c(N2CC[C@@H](F)[C@H](N)C2)nc2cc(F)c(F)cc21 (some centres unmarked) [Example 521] | 757 nM
N[C@@H]1CN(c2nc3cc(F)c(F)cc3n2Cc2cccc3ncccc23)CC[C@H]1F [Example 260, (3R,4R)-1-(5,6-difluoro-1-(5-quinolinylmethyl)-1H-benzimidazol-2-yl)-4-fluoro-3-piperidinamine] | 376 nM
CC(c1ccc(C#N)cc1)n1c(N2CCC[C@H](N)C2)nc2ccccc21 (mixture of isomers) [Example 399, 4-(1-(2-((S)-3-aminopiperidin-1-yl)-1H-benzo[d]imidazol-1-yl)ethyl)benzonitrile] | 20.5 nM
C[C@H](c1ccc(C(F)(F)F)cc1)n1c(N2CC[C@@H](F)[C@H](N)C2)nc2cc(F)c(F)cc21 [Example 336, (3R,4R)-1-(5,6-difluoro-1-((1R)-1-(4-(trifluoromethyl)phenyl)ethyl)-1H-benzimidazol-2-yl)-4-fluoro-3-piperidinamine] | > 3750 nM
